According to ChEMBL document CHEMBL4699665, “Discovery of ANT3310, a Novel Broad-Spectrum Serine β-Lactamase Inhibitor of the Diazabicyclooctane Class, Which Strongly Potentiates Meropenem Activity against Carbapenem-Resistant Enterobacterales and Acinetobacter baumannii” (J Med Chem, 2020):

Key:
Enterobacter [1] = experiment: Inhibition of beta lactamase KPC in carbapenem-resistant Enterobacter assessed as meropenem maximum concentration required for antibacterial activity at 4 ug/ml by broth microdilution method (Rvb >32 ug/ml); conditions: dose 4.0 µg/ml
Enterobacter [2] = experiment: Inhibition of beta lactamase OXA in carbapenem-resistant Enterobacter assessed as meropenem-induced antibacterial activity by measuring meropenem MIC 90 at 4 ug/ml by broth microdilution method (Rvb >32 ug/ml); conditions: dose 4.0 µg/ml
Acinetobacter baumannii = experiment: Inhibition of beta lactamase OXA in carbapenem-resistant Acinetobacter baumannii assessed as meropenem minimum concentration required for antibacterial activity at 4 ug/ml by broth microdilution method (reference value: 8 ug/ml); conditions: dose 4.0 µg/ml
[3] = Plasma protein binding in dog assessed as fraction unbound by LC-MS/MS analysis; format: ADME, cell-free, Canis lupus familiaris
Cytochrome P450 2C19 = Cytochrome P450 2C19 (Homo sapiens, UniProt P33261); experiment: Inhibition of CYP2C19 in human liver microsomes in presence of NADPH by LC-MS/MS analysis; format: ADME
Enterobacter [4] = experiment: Inhibition of beta lactamase KPC in carbapenem-resistant Enterobacter assessed as meropenem-induced antibacterial activity by measuring meropenem MIC90 at 4 ug/ml by broth microdilution method (Rvb >32 ug/ml); conditions: dose 4.0 µg/ml
Klebsiella pneumoniae = experiment: Potentiation of meropenem-induced antibacterial activity against Klebsiella Pneumoniae ACC-00783 expressing OXA-48 infected in CD-1 mouse assessed as reduction in bacterial burden co administered with 300 mg/kg, iv meropenem; format: functional, organism-based; conditions: dose mg/kg 25-100
Enterobacter cloacae = experiment: Potentiation of meropenem-induced antibacterial activity against Enterobacter cloacae expressing TEM-1/KPC-2 assessed as meropenem MIC at 4 ug/ml by broth microdilution method (reference value: 8 ug/ml); format: functional; conditions: dose 4 µg/ml
[5] = Cytotoxicity against human HepG2 cells; format: cell-based
Enterobacter [6] = experiment: Inhibition of beta lactamase KPC in carbapenem-resistant Enterobacter assessed as meropenem-induced antibacterial activity by measuring meropenem MIC50 at 4 ug/ml by broth microdilution method (Rvb >32 ug/ml); conditions: dose 4.0 µg/ml
Cytochrome P450 1A2 = target: T1, Cytochrome P450 1A2 (Homo sapiens, UniProt P05177); experiment: Inhibition of CYP1A2 in human liver microsomes in presence of NADPH by LC-MS/MS analysis; format: ADME
T1 sequence (P05177 whole entry): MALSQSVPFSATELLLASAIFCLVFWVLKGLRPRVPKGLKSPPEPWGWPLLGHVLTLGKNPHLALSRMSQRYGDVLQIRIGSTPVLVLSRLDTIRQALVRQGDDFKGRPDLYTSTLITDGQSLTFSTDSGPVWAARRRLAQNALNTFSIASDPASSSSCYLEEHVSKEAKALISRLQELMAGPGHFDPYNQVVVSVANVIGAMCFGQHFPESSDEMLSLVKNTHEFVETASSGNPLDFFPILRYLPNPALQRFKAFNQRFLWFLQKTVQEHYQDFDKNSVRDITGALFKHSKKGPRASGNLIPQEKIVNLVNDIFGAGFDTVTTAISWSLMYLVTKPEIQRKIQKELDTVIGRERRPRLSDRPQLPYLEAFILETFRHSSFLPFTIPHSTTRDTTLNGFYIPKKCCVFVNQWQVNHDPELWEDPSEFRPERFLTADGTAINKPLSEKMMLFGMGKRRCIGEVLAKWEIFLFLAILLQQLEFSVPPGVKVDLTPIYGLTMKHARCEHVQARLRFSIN

Sequence of Cytochrome P450 2C19 (P33261 whole entry): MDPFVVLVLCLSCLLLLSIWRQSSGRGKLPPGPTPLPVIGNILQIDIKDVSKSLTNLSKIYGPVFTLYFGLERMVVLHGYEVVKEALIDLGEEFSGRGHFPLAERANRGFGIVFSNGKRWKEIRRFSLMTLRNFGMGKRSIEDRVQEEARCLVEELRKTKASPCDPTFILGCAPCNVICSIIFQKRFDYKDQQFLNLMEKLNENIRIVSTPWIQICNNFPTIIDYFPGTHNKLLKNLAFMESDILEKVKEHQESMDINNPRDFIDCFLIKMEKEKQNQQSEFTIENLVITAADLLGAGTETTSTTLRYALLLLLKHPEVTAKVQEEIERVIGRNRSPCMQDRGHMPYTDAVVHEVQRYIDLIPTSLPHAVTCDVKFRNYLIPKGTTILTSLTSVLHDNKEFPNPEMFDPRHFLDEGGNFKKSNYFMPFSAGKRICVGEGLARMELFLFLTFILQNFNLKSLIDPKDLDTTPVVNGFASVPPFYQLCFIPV

`O=C1N2C[C@@H](CC[C@H]2F)N1OS(=O)(=O)[O-].[Na+]` gave an Activity (Enterobacter [1]) of 16 µg/mL, an MIC90 (Enterobacter [2]) of 1 µg/mL and an MIC (Acinetobacter baumannii) of 0.25 µg/mL. It also gave a fraction unbound [3] of over 0.93, an IC50 (Cytochrome P450 2C19) of over 50 µM and an MIC90 (Enterobacter [4]) of 1 µg/mL. The Activity (Klebsiella pneumoniae) was “Dose-dependent effect”, the MIC (Enterobacter cloacae) was 0.03 µg/mL and the CC50 [5] was over 100 µM. It also gave an MIC50 (Enterobacter [6]) of 0.06 µg/mL and an IC50 (Cytochrome P450 1A2) of over 50 µM.
